Values quoted from earlier work, collected in patent US10653742B2, “Anti-inflammatory use of liquid phytocomplexes from olive” (FATTORIA LA VIALLA DI GIANNI, ANTONIO E BANDINO LO …, priority 2013, dated 2020).

Settings: also in high concentrations

OCCc1ccc(O)c(O)c1 [Hydroxytyrosol]
toxic effect on in vivo administration: no toxic effect
